Like-named read-outs stand apart in the source and are kept apart here.
What was measured:
[1] = biological target: T1, human galectin-3C (Gal-3C, C-terminal CRD of galectin-3) (Homo sapiens, UniProt P17931); assay: Competitive fluorescence polarization assay, Gal-3C; format: binding
T1 construct: only the C-terminal domain was used (Gal-3C); 6xHis tag with TEV protease site (N, cleaved yes); made in house; host or cells: BL21 Escherichia coli (pET-15b)
Method: (§1) Our investigation of the structure–activity relationship of N-aryl-N-lactosylamides started with an initial screening of substituted acetanilides (Table ). These compounds can be readily synthesized from a wide range of commercially available substituted anilines. Affinity was evaluated using a fluorescence polarization assay, which enables reliable determination of dissociation constants (K d) between small molecules and galectins. All inhibitors in this series were tested against the two most common human galectins: Gal-1 and Gal-3. Gal-1 is a prototype galectin consisting of a single CRD and was used in full length. In the case of Gal-3, which consists of the C-terminal CRD and N-terminal unfolded region, only the C-terminal domain was used (Gal-3C). Affinities were compared to methyl β-lactoside (β-LacOMe) as a baseline.
(§2) Fluorescence polarization experiments for determining inhibitor affinities were performed using the same instrumentation and settings as described for the direct binding experiments. […] The galectin–probe mixture was subsequently added using a Certus Flex liquid handler (Fritz Gyger AG, Switzerland) to reach a final volume of 5 μL. Anisotropy was measured after 30–60 min incubation at 25 °C. Inhibitor dissociation constants (K d) were calculated using Wang’s exact cubic model for competitive binding implemented in the BindCurve package. Protein and probe concentrations used in these competitive experiments are provided in the Supporting Information.
(§3) Competitive binding was modeled by Wang’s exact cubic model,3 which is written as […]
(§4) r = rmin + (rmax − rmin) 3 (6) […]
(§5) where r, rmin and rmax have the same meaning as in Equation 1. The coefficients a, b, and c are […]
(§6) a = Kd∗ + Kd + [L∗]T + [L]T − [R]T (7) b = Kd∗([L]T − [R]T) + Kd([L∗]T − [R]T) + Kd∗ Kd (8) […]
(§7) where Kd∗ is the dissociation constant of the probe, Kd is the dissociation constant of the […]
(§8) the unlabeled ligand, and [R]T is the total concentration of the receptor. The angle θ is defined […]
(§9) In the competitive binding experiments, the values of [L∗]T, [R]T and Kd∗ are known and [L]T is titrated. The values of minimal and maximal anisotropy rmin and rmax were fixed during fitting at the values of the minimal and maximal asymptotes obtained from the direct binding experiments. The value of Kd was calculated as the only unfixed parameter in the model.
(§10) Experimental constants used for the competitive fluorescence polarization experiments are […]
(§11) Table S2. Experimental constants used for competitive fluorescence polarization experiments. […]

[2] = biological target: T2, human galectin-1 (Gal-1, full length) (Homo sapiens, UniProt P09382); assay: Competitive fluorescence polarization assay, Gal-1; format: binding
T2 construct: Gal-1 is a prototype galectin consisting of a single CRD and was used in full length; 6xHis tag with TEV protease site (N, cleaved yes); made in house; host or cells: BL21 Escherichia coli (pET-15b)
T2 sequence (P09382 2-135): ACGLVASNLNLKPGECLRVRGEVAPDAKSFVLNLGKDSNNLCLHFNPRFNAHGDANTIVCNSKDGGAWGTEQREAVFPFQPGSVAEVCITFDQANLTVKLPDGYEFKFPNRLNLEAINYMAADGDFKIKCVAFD
Method: as §1, §2, §3, §4, §5, §6, §7, §8, §9, §10, §11

[3] = CSV supplement, unrounded mean, read-out: Gal3C_IC50_mean_uM
[4] = CSV supplement, unrounded mean, read-out: Gal3C_Kd_mean_uM
[5] = competitive fluorescence polarization, mean ± SD, read-out: Kd Gal-3C
[6] = four-parameter logistic model, mean ± SD, read-out: IC50 Gal-3C
[7] = CSV supplement, unrounded mean, read-out: Gal1_IC50_mean_uM
[8] = CSV supplement, unrounded mean, read-out: Gal1_Kd_mean_uM
[9] = competitive fluorescence polarization, mean ± SD, read-out: Kd Gal-1
[10] = four-parameter logistic model, mean ± SD, read-out: IC50 Gal-1

T1 sequence (P17931 118-248 limits assumed): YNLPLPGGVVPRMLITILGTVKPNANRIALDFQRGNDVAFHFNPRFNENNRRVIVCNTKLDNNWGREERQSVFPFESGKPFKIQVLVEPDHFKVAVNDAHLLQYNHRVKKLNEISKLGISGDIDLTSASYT

SMILES	IC50 [1, 3] [µM]	Kd [1, 4] [µM]	Kd [1, 5] [µM]	IC50 [1, 6] [µM]	IC50 [2, 7] [µM]	Kd [2, 8] [µM]	Kd [2, 9] [µM]	IC50 [2, 10] [µM]	improvement in affinity toward Gal-1 compared to 3a ([2]; compared to 3a) [fold]	improvement in affinity toward Gal-3C compared to 3a ([1]; compared to unsubstituted phenyl derivative 3a) [fold]	selectivity for Gal-3C over Gal-1 ([1]; ratio Kd (Gal-1)/Kd (Gal-3C)) [fold]	decrease of affinity toward Gal-3C compared to 3r ([1]; compared to 3r) [fold]
CC(=O)N(c1ccc(I)cc1)[C@@H]1O[C@H](CO)[C@@H](O[C@@H]2O[C@H](CO)[C@H](O)[C@H](O)[C@H]2O)[C@H](O)[C@H]1O [Compound 3l, N-[4-O-(β-D-Galactopyranosyl)-β-D-glucopyranosyl]-N-(4-iodophenyl)acetamide]	355	113	110 ± 20	360 ± 20	718	396	400 ± 20	720 ± 40	–	–	–	–
COc1ccc(N(C(C)=O)[C@@H]2O[C@H](CO)[C@@H](O[C@@H]3O[C@H](CO)[C@H](O)[C@H](O)[C@H]3O)[C@H](O)[C@H]2O)cc1 [Compound 3m, N-[4-O-(β-D-Galactopyranosyl)-β-D-glucopyranosyl]-N-(4-methoxyphenyl)acetamide]	346	137	140 ± 50	350 ± 30	973	661	660 ± 70	970 ± 50	–	–	–	–
COc1ccc(N(C(C)=O)[C@@H]2O[C@H](CO)[C@@H](O[C@@H]3O[C@H](CO)[C@H](O)[C@H](O)[C@H]3O)[C@H](O)[C@H]2O)cc1OC [Compound 3n, N-[4-O-(β-D-Galactopyranosyl)-β-D-glucopyranosyl]-N-(3,4-dimethoxyphenyl)acetamide]	284	88.9	89 ± 20	280 ± 10	678	364	360 ± 40	680 ± 10	–	–	–	–
COc1cc(N(C(C)=O)[C@@H]2O[C@H](CO)[C@@H](O[C@@H]3O[C@H](CO)[C@H](O)[C@H](O)[C@H]3O)[C@H](O)[C@H]2O)cc(OC)c1OC [Compound 3o, N-[4-O-(β-D-Galactopyranosyl)-β-D-glucopyranosyl]-N-(3,4,5-trimethoxyphenyl)acetamide]	238	76.2	76 ± 20	240 ± 40	461	243	240 ± 40	460 ± 80	2	–	–	–
CC(=O)N(c1ccc2c(c1)OCO2)[C@@H]1O[C@H](CO)[C@@H](O[C@@H]2O[C@H](CO)[C@H](O)[C@H](O)[C@H]2O)[C@H](O)[C@H]1O [Compound 3p, N-[4-O-(β-D-Galactopyranosyl)-β-D-glucopyranosyl]-N-(1,3-benzodioxol-5-yl)acetamide]	346	115	110 ± 20	350 ± 10	981	545	540 ± 30	980 ± 10	–	–	–	–
CCOC(=O)c1ccccc1N(C(C)=O)[C@@H]1O[C@H](CO)[C@@H](O[C@@H]2O[C@H](CO)[C@H](O)[C@H](O)[C@H]2O)[C@H](O)[C@H]1O [Compound 3q, N-[4-O-(β-D-Galactopyranosyl)-β-D-glucopyranosyl]-N-[2-(ethylcarboxy)phenyl]acetamide]	242	80.2	80 ± 9	240 ± 5	773	411	410 ± 20	770 ± 70	–	–	–	–
CC(=O)N(c1cccc(C(=O)O)c1)[C@@H]1O[C@H](CO)[C@@H](O[C@@H]2O[C@H](CO)[C@H](O)[C@H](O)[C@H]2O)[C@H](O)[C@H]1O [Compound 3r, N-[4-O-(β-D-Galactopyranosyl)-β-D-glucopyranosyl]-N-(3-carboxyphenyl)acetamide]	127	40.9	41 ± 10	130 ± 20	1400	858	860 ± 30	1400 ± 100	–	2	20	–
CC(C)C(=O)N(c1cccc(C(=O)O)c1)[C@@H]1O[C@H](CO)[C@@H](O[C@@H]2O[C@H](CO)[C@H](O)[C@H](O)[C@H]2O)[C@H](O)[C@H]1O [Compound 3s, N-[4-O-(β-D-Galactopyranosyl)-β-D-glucopyranosyl]-N-(3-carboxyphenyl)-2-methylpropanamide]	113	39.5	39 ± 4	110 ± 0.2	1800	1000	1000 ± 300	1800 ± 200	–	–	–	–
O=C(O)c1cccc(N(C(=O)c2ccccc2)[C@@H]2O[C@H](CO)[C@@H](O[C@@H]3O[C@H](CO)[C@H](O)[C@H](O)[C@H]3O)[C@H](O)[C@H]2O)c1 [Compound 3t, N-[4-O-(β-D-Galactopyranosyl)-β-D-glucopyranosyl]-N-(3-carboxyphenyl)benzamide]	120	51.3	51 ± 10	120 ± 9	1310	841	840 ± 80	1300 ± 30	–	–	–	–
O=C(O)c1cccc(N(C(=O)Cc2ccccc2)[C@@H]2O[C@H](CO)[C@@H](O[C@@H]3O[C@H](CO)[C@H](O)[C@H](O)[C@H]3O)[C@H](O)[C@H]2O)c1 [Compound 3u, N-[4-O-(β-D-Galactopyranosyl)-β-D-glucopyranosyl]-N-(3-carboxyphenyl)-2-phenylacetamide]	133	53.6	54 ± 6	130 ± 20	2150	1240	1200 ± 10	2100 ± 800	–	–	–	–
COC(=O)c1cccc(N(C(C)=O)[C@@H]2O[C@H](CO)[C@@H](O[C@@H]3O[C@H](CO)[C@H](O)[C@H](O)[C@H]3O)[C@H](O)[C@H]2O)c1 [Compound 3v, N-[4-O-(β-D-Galactopyranosyl)-β-D-glucopyranosyl]-N-[3-(methylcarboxy)phenyl]acetamide]	241	94.6	95 ± 40	240 ± 30	655	432	430 ± 30	660 ± 100	–	–	–	–
CNC(=O)c1cccc(N(C(C)=O)[C@@H]2O[C@H](CO)[C@@H](O[C@@H]3O[C@H](CO)[C@H](O)[C@H](O)[C@H]3O)[C@H](O)[C@H]2O)c1 [Compound 3w, N-[4-O-(β-D-Galactopyranosyl)-β-D-glucopyranosyl]-N-[3-(methylcarbamoyl)phenyl]acetamide]	220	88.1	88 ± 20	220 ± 6	666	445	440 ± 100	670 ± 90	–	–	–	–
CC(=O)N(c1cccc(CO)c1)[C@@H]1O[C@H](CO)[C@@H](O[C@@H]2O[C@H](CO)[C@H](O)[C@H](O)[C@H]2O)[C@H](O)[C@H]1O [Compound 3x, N-[4-O-(β-D-Galactopyranosyl)-β-D-glucopyranosyl]-N-[3-(hydroxymethyl)phenyl]acetamide]	273	106	110 ± 30	270 ± 0.9	842	542	540 ± 60	840 ± 90	–	–	–	2
CC(=O)N(c1cccc(-c2nnn[nH]2)c1)[C@@H]1O[C@H](CO)[C@@H](O[C@@H]2O[C@H](CO)[C@H](O)[C@H](O)[C@H]2O)[C@H](O)[C@H]1O [Compound 3y, N-[4-O-(β-D-Galactopyranosyl)-β-D-glucopyranosyl]-N-[3-(1H-tetrazol-5-yl)phenyl]acetamide]	123	48.8	49 ± 20	120 ± 9	1260	812	810 ± 200	1300 ± 100	–	–	–	–
CC(=O)N(c1cccc(-c2ccc(C)o2)c1)[C@@H]1O[C@H](CO)[C@@H](O[C@@H]2O[C@H](CO)[C@H](O)[C@H](O)[C@H]2O)[C@H](O)[C@H]1O [Compound 3z, N-[4-O-(β-D-Galactopyranosyl)-β-D-glucopyranosyl]-N-[3-(5-methylfuran-2-yl)phenyl]acetamide]	327	121	120 ± 30	330 ± 1	860	558	560 ± 80	860 ± 100	–	–	–	–
